The assay deals with BxPC-3 cells. Description: Cellular proliferation assay in BxPC-3 cells (Cell-Titer Glo, 120 h). The class given is cell-based. The note with it: Homo sapiens, 120 h incubation, Cell-Titer Glo luminescence. On the procedure:
Compounds are tested for their ability to impair cancer cell proliferation and/or induce cell death. For cellular proliferation studies, cultured cells are treated with the test compound for 24-120 hours. After compound treatment, cell proliferation is assessed by using methods including, but not limited to, Cell-Titer-Glo® (Promega), Alamar Blue, LIVE/DEAD® (ThermoFisher), BrdU incorporation, and live-cell imaging.
The cancer lines used include, but are not limited to, PANC-1, MiaPaCa-2, BxPC-3 (pancreatic cancer), RT112 (bladder cancer), MCF-7 (breast cancer), and A549 (non-small cell lung cancer). Gemcitabine Hydrochloride serves as a control for activity.
Protocol for the Cellular Proliferation Assay in BxPC-3 Cells
BxPC-3 (pancreatic adenocarcinoma) cell line was purchased from the American Type Culture Collection (Catalog #CRL-1687) and grown in RPMI-1640 medium (e.g. Corning #10-040-CV) with 10% Heat Inactivated Fetal Calf Serum at 37° C. and 5% CO2 (as recommended by the ATCC).
Cultures were grown in […] plates to 80% confluence, and cells were trypsinized to a single-cell suspension. Cells were then resuspended in growth medium to a density of […]. They were then plated into 96-well assay plates (Corning #3917) in a volume of 100 ul/well (2,500 cells/well). Cells were allowed to adhere to plates for 24 h at 37° C. and 5% CO2). Compounds were then added to the wells using an […] serial dilution scheme (over 9 dilutions, generally ranging from 30 μM-30 pM), and the cells were incubated for an additional 120 hours. After 120 h, 90 ul of Cell-Titer Glo reagent (Promega #G7572) was added, and the plates were read using a luminescence counter (e.g., BioTek Synergy HTX at 100 ms read time).

Where a name gives a salt, the structure may show the parent alone.

The term EC50 denotes the concentration needed to bring the measured effect to its halfway point. Turning to `Nc1ccn([C@@H]2O[C@H](CO)[C@@H](O)C2(F)F)c(=O)n1` [Gemcitabine Hydrochloride, 2′,2′-difluoro-2′-deoxycytidine, reference compound], the 50% effective concentration (EC50) fell in the range of 1 to 100 nM.

For the origin of these results see patent publication US11306111B2, “Organophosphate derivatives” (January Therapeutics, Inc., priority 2017, dated 2022).
